Test results published in ChEMBL document CHEMBL3860098, “Sulfamide as Zinc Binding Motif in Small Molecule Inhibitors of Activated Thrombin Activatable Fibrinolysis Inhibitor (TAFIa)” (J Med Chem, 2016).
Values belong to the molecule of their own block, whether it stands above or below them.

Key:
[1] = biological target: T1, Carboxypeptidase B2 (Homo sapiens, UniProt Q96IY4)
T1 sequence (Q96IY4 whole entry): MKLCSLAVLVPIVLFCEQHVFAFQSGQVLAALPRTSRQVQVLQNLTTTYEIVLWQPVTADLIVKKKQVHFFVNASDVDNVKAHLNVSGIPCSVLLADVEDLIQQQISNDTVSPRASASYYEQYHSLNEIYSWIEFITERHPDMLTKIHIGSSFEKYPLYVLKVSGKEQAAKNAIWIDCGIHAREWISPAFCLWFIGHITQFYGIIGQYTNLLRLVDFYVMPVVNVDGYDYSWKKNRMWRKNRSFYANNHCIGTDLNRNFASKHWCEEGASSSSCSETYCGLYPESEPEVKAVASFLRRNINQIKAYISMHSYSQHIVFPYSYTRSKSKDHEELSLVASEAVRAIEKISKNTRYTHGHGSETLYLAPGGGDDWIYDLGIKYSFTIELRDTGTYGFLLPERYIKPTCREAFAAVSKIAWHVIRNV
Description: Inhibition of activated human plasma TAFI incubated for 15 mins by chromogenic assay

[2] = biological target: Prothrombin (Homo sapiens) (UniProt P00734); assay: Inhibition of factor 2a (unknown origin) at 100 uM relative to control
[3] = biological target: T2, Coagulation factor VII (Homo sapiens) (UniProt P08709); assay: Inhibition of factor 7a (unknown origin) at 100 uM relative to control
T2 sequence (whole entry): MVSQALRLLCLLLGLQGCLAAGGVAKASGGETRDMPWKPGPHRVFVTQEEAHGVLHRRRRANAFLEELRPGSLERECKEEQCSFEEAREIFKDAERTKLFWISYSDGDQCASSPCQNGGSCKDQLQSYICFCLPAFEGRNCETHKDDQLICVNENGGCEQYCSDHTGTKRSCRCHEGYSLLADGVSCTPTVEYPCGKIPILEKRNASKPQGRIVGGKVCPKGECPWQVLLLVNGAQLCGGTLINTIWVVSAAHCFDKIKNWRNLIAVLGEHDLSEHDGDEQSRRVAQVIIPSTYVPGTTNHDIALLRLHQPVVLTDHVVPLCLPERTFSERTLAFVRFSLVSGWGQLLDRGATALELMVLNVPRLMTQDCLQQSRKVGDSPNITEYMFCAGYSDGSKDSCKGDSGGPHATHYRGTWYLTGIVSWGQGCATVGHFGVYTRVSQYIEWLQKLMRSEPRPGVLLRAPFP

[4] = biological target: Coagulation factor X (Homo sapiens) (UniProt P00742); assay: Inhibition of factor 10a (unknown origin) at 100 uM relative to control
[5] = biological target: Coagulation factor XI (Homo sapiens) (UniProt P03951); assay: Inhibition of factor 11a (unknown origin) at 100 uM relative to control
[6] = biological target: T3, Coagulation factor XII (Homo sapiens) (UniProt P00748); assay: Inhibition of factor 12a (unknown origin) at 100 uM relative to control
T3 sequence (whole entry): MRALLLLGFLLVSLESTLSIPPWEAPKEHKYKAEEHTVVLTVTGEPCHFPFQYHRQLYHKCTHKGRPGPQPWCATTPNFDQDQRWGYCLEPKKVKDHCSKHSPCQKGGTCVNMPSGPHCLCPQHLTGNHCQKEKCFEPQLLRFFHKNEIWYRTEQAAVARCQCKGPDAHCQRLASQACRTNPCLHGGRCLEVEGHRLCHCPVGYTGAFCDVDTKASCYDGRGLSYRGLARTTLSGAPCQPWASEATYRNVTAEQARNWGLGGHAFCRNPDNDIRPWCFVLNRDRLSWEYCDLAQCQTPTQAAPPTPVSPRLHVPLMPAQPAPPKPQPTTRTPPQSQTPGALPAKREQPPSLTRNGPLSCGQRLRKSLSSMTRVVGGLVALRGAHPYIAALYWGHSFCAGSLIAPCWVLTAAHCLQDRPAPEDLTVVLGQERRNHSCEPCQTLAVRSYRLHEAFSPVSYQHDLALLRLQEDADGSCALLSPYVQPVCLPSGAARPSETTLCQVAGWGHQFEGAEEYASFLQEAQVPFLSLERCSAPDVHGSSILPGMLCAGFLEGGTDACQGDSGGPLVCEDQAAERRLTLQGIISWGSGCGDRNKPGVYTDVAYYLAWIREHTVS

[7] = biological target: Urokinase-type plasminogen activator (Homo sapiens) (UniProt P00749); assay: Inhibition of urokinase (unknown origin) at 100 uM relative to control
[8] = biological target: T4, Complement C1s subcomponent (Homo sapiens) (UniProt P09871); assay: Inhibition of C1s (unknown origin) at 100 uM relative to control
T4 sequence (whole entry): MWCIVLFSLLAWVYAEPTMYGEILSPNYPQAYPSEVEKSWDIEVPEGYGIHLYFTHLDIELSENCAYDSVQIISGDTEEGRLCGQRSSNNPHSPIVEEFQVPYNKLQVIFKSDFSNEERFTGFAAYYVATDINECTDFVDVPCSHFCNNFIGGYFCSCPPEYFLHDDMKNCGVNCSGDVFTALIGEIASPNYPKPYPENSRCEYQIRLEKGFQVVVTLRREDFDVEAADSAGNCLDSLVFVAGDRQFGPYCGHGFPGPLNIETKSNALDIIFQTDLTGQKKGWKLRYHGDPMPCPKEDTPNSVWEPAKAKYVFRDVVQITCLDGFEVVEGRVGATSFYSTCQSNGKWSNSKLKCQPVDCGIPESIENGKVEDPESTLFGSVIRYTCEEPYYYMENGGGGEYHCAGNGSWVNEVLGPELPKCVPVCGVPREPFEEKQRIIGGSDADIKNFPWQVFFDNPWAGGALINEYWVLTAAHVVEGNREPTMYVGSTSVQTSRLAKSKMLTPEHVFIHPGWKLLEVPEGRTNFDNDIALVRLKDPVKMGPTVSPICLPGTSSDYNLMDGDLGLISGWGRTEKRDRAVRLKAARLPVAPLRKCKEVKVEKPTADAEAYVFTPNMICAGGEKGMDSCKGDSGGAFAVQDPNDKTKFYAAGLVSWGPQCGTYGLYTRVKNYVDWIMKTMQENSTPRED

[9] = biological target: Tissue-type plasminogen activator (Homo sapiens) (UniProt P00750); assay: Inhibition of tPA (unknown origin) at 100 uM relative to control
[10] = species: Homo sapiens; assay: Inhibition of tryptase (unknown origin) at 100 uM relative to control
[11] = species: Homo sapiens; assay: Inhibition of trypsin (unknown origin) at 100 uM relative to control
[12] = biological target: Plasminogen (Homo sapiens) (UniProt P00747); assay: Inhibition of plasmin (unknown origin) at 100 uM relative to control
[13] = biological target: Plasma kallikrein (Homo sapiens) (UniProt P03952); details: 100 uM
Description: Inhibition of KLKB1 (unknown origin) at 100 uM relative to control

[14] = Terminal half life in Sprague-Dawley rat at 1 mg/kg, iv administered as bolus dose measured up to 24 hrs; format: ADME, organism-based; details: in vivo, read-out: beta t1/2 (converted)
[15] = Initial plasma concentration in Sprague-Dawley rat at 1 mg/kg, iv administered as bolus dose measured up to 4 hrs; format: ADME, organism-based
[16] = Clearance in Sprague-Dawley rat at 1 mg/kg, iv administered as bolus dose measured up to 24 hrs; format: ADME, organism-based; details: in vivo
[17] = Volume distribution at steady state in Sprague-Dawley rat at 1 mg/kg, iv administered as bolus dose measured up to 24 hrs; format: ADME, organism-based; details: in vivo, read-out: Vdss
[18] = Drug excretion in Sprague-Dawley rat urine at 1 mg/kg, iv administered as bolus dose after 24 hrs; format: ADME, organism-based; details: read-out: Drug excretion

Sequence of Coagulation factor XI (Homo sapiens) (P03951 19-387 limits assumed): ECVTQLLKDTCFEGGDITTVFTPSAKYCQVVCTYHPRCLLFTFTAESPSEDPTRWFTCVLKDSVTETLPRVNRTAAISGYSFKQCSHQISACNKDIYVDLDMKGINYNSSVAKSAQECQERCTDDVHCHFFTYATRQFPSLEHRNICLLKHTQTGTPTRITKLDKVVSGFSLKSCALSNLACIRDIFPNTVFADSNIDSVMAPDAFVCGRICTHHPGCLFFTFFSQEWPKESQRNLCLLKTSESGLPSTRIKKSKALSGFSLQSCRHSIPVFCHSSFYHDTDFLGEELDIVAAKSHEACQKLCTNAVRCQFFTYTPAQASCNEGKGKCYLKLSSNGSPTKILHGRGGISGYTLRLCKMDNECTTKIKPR
Sequence of Coagulation factor XI (Homo sapiens) (P03951 388-625 limits assumed): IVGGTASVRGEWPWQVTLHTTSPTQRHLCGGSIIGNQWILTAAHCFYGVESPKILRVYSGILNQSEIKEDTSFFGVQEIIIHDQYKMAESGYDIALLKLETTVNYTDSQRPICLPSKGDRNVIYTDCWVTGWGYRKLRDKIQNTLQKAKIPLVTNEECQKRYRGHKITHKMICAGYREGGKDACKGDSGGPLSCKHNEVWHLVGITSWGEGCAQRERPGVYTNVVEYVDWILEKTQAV
Sequence of Tissue-type plasminogen activator (Homo sapiens) (P00750 36-562 limits assumed): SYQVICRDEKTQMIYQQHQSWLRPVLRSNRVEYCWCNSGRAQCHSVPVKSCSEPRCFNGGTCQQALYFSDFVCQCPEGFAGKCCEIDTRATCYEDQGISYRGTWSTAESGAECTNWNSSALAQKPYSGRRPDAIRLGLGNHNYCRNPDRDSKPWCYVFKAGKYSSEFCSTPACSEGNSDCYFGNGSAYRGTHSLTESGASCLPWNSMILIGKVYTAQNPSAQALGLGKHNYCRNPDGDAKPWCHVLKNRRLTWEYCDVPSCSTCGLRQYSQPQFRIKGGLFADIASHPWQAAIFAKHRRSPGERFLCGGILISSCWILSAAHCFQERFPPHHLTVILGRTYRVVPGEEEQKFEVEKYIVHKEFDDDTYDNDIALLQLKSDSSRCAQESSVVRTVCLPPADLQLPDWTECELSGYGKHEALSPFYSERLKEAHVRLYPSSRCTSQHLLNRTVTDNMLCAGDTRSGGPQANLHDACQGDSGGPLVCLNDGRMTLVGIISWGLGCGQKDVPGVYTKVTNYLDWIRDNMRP
Sequence of Coagulation factor X (Homo sapiens) (P00742 41-179 limits assumed): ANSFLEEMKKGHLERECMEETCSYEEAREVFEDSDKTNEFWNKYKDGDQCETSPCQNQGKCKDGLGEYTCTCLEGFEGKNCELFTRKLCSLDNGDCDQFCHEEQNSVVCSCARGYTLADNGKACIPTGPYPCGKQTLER
Sequence of Coagulation factor X (Homo sapiens) (P00742 235-488 limits assumed): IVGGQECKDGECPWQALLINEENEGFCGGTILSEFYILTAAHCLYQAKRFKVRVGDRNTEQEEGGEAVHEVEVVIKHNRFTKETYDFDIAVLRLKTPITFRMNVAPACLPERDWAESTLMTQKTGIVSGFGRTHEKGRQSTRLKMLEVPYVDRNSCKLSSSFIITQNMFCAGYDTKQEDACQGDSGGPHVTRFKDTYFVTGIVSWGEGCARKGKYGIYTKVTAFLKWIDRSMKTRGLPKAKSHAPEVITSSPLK
Sequence of Plasminogen (Homo sapiens) (P00747 97-580 limits assumed): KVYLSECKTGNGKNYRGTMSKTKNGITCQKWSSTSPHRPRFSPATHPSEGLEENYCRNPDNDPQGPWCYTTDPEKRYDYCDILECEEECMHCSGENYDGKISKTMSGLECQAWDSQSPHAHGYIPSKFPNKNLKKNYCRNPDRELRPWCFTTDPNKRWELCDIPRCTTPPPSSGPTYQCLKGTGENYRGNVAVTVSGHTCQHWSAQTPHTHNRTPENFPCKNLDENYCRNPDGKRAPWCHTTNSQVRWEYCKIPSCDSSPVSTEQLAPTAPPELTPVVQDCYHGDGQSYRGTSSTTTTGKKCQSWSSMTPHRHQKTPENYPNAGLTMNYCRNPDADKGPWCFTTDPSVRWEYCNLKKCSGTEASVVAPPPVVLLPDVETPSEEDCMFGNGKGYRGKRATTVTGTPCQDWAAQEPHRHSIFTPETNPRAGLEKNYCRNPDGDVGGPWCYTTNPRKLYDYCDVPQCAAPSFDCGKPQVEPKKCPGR
Sequence of Plasminogen (Homo sapiens) (P00747 581-810 limits assumed): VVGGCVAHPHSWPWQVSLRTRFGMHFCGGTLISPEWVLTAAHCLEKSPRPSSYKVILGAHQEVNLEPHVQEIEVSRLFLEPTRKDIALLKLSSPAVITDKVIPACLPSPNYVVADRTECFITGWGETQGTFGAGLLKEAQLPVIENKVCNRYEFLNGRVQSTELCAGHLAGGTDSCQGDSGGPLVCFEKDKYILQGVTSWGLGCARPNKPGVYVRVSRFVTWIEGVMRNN
Sequence of Plasma kallikrein (Homo sapiens) (P03952 20-390 limits assumed): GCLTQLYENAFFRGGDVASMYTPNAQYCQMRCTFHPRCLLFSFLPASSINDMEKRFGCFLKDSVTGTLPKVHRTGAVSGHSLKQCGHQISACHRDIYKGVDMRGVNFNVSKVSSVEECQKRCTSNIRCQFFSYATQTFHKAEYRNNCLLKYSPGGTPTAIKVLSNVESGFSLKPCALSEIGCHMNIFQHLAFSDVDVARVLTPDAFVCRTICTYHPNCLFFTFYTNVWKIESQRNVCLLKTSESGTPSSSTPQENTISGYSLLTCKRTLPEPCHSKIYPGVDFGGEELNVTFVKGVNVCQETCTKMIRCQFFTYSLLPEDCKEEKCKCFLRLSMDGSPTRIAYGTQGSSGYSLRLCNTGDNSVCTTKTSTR
Sequence of Plasma kallikrein (Homo sapiens) (P03952 391-638 limits assumed): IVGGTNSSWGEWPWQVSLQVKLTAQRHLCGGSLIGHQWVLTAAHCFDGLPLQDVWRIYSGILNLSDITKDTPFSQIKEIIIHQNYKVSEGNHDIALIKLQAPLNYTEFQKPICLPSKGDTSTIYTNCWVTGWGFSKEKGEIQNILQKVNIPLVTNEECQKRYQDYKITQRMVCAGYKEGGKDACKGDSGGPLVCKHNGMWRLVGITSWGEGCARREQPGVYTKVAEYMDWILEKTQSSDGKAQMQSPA

Structure (SMILES): CC1(C)[C@@H]2CC[C@@]1(C)[C@@H](NC(=O)[C@H](CC1CCCCC1)NS(=O)(=O)N[C@@H](CCCCO)C(=O)O)C2
IC50 [1]: > 30 µM

Structure (SMILES): CC1(C)[C@@H]2CC[C@@]1(C)[C@@H](NC(=O)[C@H](CC1CCCCC1)NS(=O)(=O)N[C@@H](CCCCN)C(=O)O)C2 [listing 1 of 2 here]
inhibition [2]: < 40%
inhibition [3]: < 40%
inhibition [4]: < 40%
inhibition [5]: < 40%
inhibition [6]: < 40%
inhibition [7]: < 40%
inhibition [8]: < 40%
inhibition [9]: < 40%
inhibition [10]: < 40%
inhibition [11]: < 40%
inhibition [12]: < 40%
inhibition [13]: < 40%

Structure (SMILES): CC1(C)[C@@H]2CC[C@@]1(C)[C@@H](NC(=O)[C@H](CC1CCCCC1)NS(=O)(=O)N[C@@H](CCCC(N)=O)C(=O)O)C2
IC50 [1]: > 30 µM

Structure (SMILES): CC1(C)C2CCC1(C)C(OC(=O)[C@H](CC1CCCCC1)NS(=O)(=O)N[C@@H](CCCCN)C(=O)O)C2 (some centres undefined)
IC50 [1]: 6.4 µM

Structure (SMILES): CC1(C)[C@@H]2CC[C@@]1(C)[C@@H](NC(=O)[C@H](CC1CCCCC1)NS(=O)(=O)N[C@@H](CCCCNC(N)=O)C(=O)O)C2
IC50 [1]: > 30 µM

Further lines, results first:

IC50 [1]: > 30 µM
Structure (SMILES): C[C@H](NS(=O)(=O)N[C@@H](CCCCN)C(=O)O)C(=O)NC12CC3CC(CC(C3)C1)C2

IC50 [1]: > 30 µM
Structure (SMILES): NCCCC[C@H](NS(=O)(=O)N[C@H](C(=O)NC12CC3CC(CC(C3)C1)C2)c1ccccc1)C(=O)O

IC50 [1]: 6.7 µM
Structure (SMILES): CC(C)(C)NC(=O)[C@H](CC1CCCCC1)NS(=O)(=O)N[C@@H](CCCCN)C(=O)O

half-life [14]: 1.7 h
C0 at 4 h [15]: 3800 ng/mL
clearance [16]: 11.7 mL/min/kg
Vd [17]: 0.38 L/kg
dose excreted at 24 h [18]: 4%
Structure (SMILES): CC1(C)[C@@H]2CC[C@@]1(C)[C@@H](NC(=O)[C@H](CC1CCCCC1)NS(=O)(=O)N[C@@H](CCCCN)C(=O)O)C2 [listing 2 of 2 here]
